In patent US11814396B2, “Sesquiterpenoid analogs” (Purdue Research Foundation, priority 2018, dated 2023):

Key:
PTP1B = target: T1, PTP1B (Homo sapiens, UniProt P18031); conditions: reported by Hu et al., Eur. J. Org. Chem. 2016; cited from earlier work
T1 sequence (P18031 1-435): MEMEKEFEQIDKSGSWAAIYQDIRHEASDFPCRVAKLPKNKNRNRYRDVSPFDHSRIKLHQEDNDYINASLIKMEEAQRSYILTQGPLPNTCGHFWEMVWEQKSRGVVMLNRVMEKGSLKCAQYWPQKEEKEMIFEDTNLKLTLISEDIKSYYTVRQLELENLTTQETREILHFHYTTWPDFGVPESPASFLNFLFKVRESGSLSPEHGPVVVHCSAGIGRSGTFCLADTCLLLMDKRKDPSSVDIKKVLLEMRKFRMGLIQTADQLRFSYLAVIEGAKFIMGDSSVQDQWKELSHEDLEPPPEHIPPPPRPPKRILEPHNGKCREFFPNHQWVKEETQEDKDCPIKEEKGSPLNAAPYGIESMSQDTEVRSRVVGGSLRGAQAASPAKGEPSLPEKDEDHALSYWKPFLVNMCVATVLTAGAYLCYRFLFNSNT

SHP2 = target: T2, SHP2 (Homo sapiens, UniProt Q06124); assay: PTP inhibition study with pNPP as substrate; format: biochemical; conditions: pH 7, 25° C.; for IC50: 15 min
T2 sequence (Q06124 1-593): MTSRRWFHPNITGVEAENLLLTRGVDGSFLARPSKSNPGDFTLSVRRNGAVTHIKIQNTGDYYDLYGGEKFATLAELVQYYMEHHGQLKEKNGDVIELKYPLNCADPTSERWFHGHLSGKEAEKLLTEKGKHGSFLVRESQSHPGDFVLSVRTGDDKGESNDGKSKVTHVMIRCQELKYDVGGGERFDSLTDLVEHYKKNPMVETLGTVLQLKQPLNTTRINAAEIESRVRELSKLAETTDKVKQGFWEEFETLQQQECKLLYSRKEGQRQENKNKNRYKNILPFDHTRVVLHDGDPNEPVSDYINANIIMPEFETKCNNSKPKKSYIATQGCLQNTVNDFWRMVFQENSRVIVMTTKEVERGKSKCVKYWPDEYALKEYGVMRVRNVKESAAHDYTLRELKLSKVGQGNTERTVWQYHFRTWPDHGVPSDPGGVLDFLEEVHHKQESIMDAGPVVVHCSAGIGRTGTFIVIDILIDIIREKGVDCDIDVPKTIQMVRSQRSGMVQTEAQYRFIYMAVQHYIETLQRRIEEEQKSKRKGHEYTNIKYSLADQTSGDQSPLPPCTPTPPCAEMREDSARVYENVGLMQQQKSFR
Procedure: PTP Inhibition Study. Abies sesquiterpenoids and their analogs were evaluated for their ability to inhibit the reaction catalyzed by PTP1B and SHP2 using p-nitrophenyl phosphatae (pNPP) as a substrate at pH 7 and 25° C. […] The reaction was quenched after 3 (PTP1B) or 15 (SHP2) min by the addition of 25 μl of 5N NaOH. The absorbance at 405 nm was detected by a Spectra MAX 384 PLUS microplate spectrophotometer (Molecular Devices). IC50 values were calculated by fitting the absorbance at 405 nm versus inhibitor concentration to the following equation: A1/A0=IC50/(IC50+[I]) wherein A1 is the absorbance at 405 nm of the sample in the presence of inhibitor; A0 is the absorbance at 405 nm in the absence of inhibitor; and [I] is the concentration of the inhibitor.

[1] = tested on: production of nitric oxide; conditions: reported; cited from earlier work
POLE3-GFP = target: T3, POLE3-GFP (Homo sapiens, UniProt Q9NRF9); assay: Gel-based determination of kinetic parameters Ki and kinact (Kitz and Wilson method); format: binding; conditions: lysate of 293T cells overexpressing WT POLE3-GFP, 37° C., competition with 30 μM Example 4
T3 construct: expressed in transfected cells; host or cells: 293T
T3 sequence (Q9NRF9 1-147): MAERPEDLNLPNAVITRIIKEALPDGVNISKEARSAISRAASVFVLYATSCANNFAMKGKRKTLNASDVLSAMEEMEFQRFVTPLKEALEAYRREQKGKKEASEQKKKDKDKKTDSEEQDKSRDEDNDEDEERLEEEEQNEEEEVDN
Procedure: 293T cells in a 3.5 cm Petri dish were transfected with POLE3-WT-GFP-pEXP or […] using PEI-MAX. After 24 hours, lysates were prepared as described above. Proteins (1 mg/mL, 25 μL) were incubated with indicated compounds at indicated concentrations (25× stock in DMSO) for three hours at 37° C. Subsequently, 30 μM Example 4 (25× stock in DMSO) was added for one hour at r.t. Click chemistry, reducing SDS-PAGE and visualization were performed as described above. Proteins were transferred to a PVDF membrane using a Trans-Blot Turbo transfer system (Bio-Rad). Membrane was blocked with 3% BSA in Tris-Buffered Saline with 0.1% Tween 20 (TBST) for one hour at r.t. Mouse monoclonal antibody against GFP (Roche, 1/1000 in 3% BSA in TBST) was added and incubated overnight at 4° C. Membrane was washed three times for five min. with TBST and incubated with anti-mouse Alexa Fluor 647 (Jackson ImmunoResearch Inc., 1/500 in 3% BSA in TBST) for one hour at r.t. Membrane was washed four times for five min. with TBST and visualized with an Azure Biosystems Sapphire Biomolecular Imager.
WT POLES-GFP was overexpressed in 293T cells as described above and lysate was treated with indicated concentrations of Example 2 (1 μL of 25× stock in DMSO) for 1.5, 2, 2.5, 3, 3.5 or 4 hours at 37° C. […] Images were quantified using ImageJ and the kinetic parameters were determined using GraphPad Prism (V7.02).).

HeLa cells = assay: Visualization of DNA double strand breaks by γH2AX staining (confocal microscopy); format: cell-based
Procedure: HeLa cells were seeded (250′000 cells/mL) in a 6-well plate and reverse transfected with scrambled siRNA or POLE3 siRNA using RNAiMAX for two days. Cells were trypsinizned, seeded (150′000 cells/mL) in a 24-well plate containing a coverslip and left overnight to attach and grow. […] Cells were washed one time with PBS and fixed with methanol at −20° C. for 10 min. Cells were washed again two times with PBS and coverslip was transferred to a wet box.
Blocking was performed with a 5% bovine serum albumin (BSA) solution in PBS for 30 min. Cells were washed one time with PBS 0.1% BSA and rabbit antibody directed against H2AX pSer^139 (Sigma Aldrich H5912, 1/250 in PBS 0.1% BSA) was added and incubated for one hour at r.t. Cells were washed three times with PBS 0.1% BSA and incubated for one hour with anti-rabbit IgG Alexa Fluor 488 (Jackson, 1/200 in PBS 0.1% BSA). Cells were washed three times with PBS 0.1% BSA, one time with PBS, one time with water and then mounted on a slide with ProLong Gold antifade mountant with DAPI (Life Technologies). Cells were visualized with an LSM 700 confocal microscope (Zeiss).
Induced DNA damage was measured by confocal microscopy using γH2AX staining as marker.

POLE3 = target: T4, POLE3 (Homo sapiens, UniProt Q9NRF9); assay: Global proteomics profiling versus POLE3 knockdown; format: cell-based; conditions: HeLa cells
T4 construct: endogenous in cells; host or cells: HeLa
T4 sequence (Q9NRF9 1-147): T3 sequence (Q9NRF9 1-147)
Description: To understand whether binding of Example 2 to C51 of POLE3 is productive and leads to the loss of function of this protein, POLE3 was knocked down in HeLa cells using siRNA and compared by global proteomics the protein expression profile in these cells versus cells treated with compound Example 2 or DMSO as control. […] Possibly as a compensatory effect, we also observed fourfold upregulation of POLE, another subunit of DNA polymerase ε.
Knockdown of POLE3 was achieved using RNAiMAx (Invitrogen) and POLE3 siRNA (Dharmacon) via reverse transfection according to the manual of the manufacturer. Briefly, 9 μL of 20 μM siRNA was mixed with 9 μL of RNAiMax reagent in 500 μL OptiMEM and incubated for 20 min. at r.t. […] Samples were analyzed by LC-MS/MS (see below) and the MS data was processed with MaxQuant (see below).
Peptides were resuspended in water with 0.1% formic acid (FA) and analyzed using EASY-nLC 1200 nano-UHPLC coupled to Q Exactive HF-X Quadrupole-Orbitrap mass spectrometer (Thermo Scientific). […]
The MS data was analyzed with MaxQuant (V1.6.1.0) and searched against the human proteome (Uniprot) and a common list of contaminants (included in MaxQuant). […] The minimum peptide length was set to 6 amino acids and peptide re-quantification, label-free quantification (MaxLFQ) and “match between runs” were enabled. […]

MDA-MB-231 lysate = assay: Gel-based in vitro JW-RF-001 competition of labeling with Example 4; format: binding; conditions: 30 μM Example 4, MDA-MB-231 lysate, one hour at r.t.
Procedure: MDA-MB-231 lysate (2 mg/mL, 25 μL) was treated with indicated concentrations of azide probes (Example 4) (1 μL of 25× stock in DMSO) for one hour at r.t. Click chemistry was initiated by the addition of TAMRA alkyne (Sigma-Aldrich, 30 μM, 25× stock in DMSO), tris(2-carboxyethyl)phosphine hydrochloride (TCEP, Alfa Aesar, 1 mM, fresh 50× stock in water), tris[(1-benzyl-1H-1,2,3-triazol-4-yl)methyl]amine (TBTA, Sigma-Aldrich, 100 μM, 16× stock in DMSO:tBuOH 1:4), and copper(II) sulfate (1 mM, 50× stock in water) to the lysate and incubated in the dark for one hour at r.t. SDS-PAGE reducing loading buffer (4×) was added and proteins were separated using a 10% SDS-PAGE gel. Gels were visualized using an Azure Biosystems Sapphire Biomolecular Imager, then stained using Coomassie. Images were quantified with ImageJ (V1.51).
MDA-MB-231 lysate (2 mg/mL, 25 μL) was treated with either 3 mM JW-RF-001 (1 μL of 25× stock in DMSO) or DMSO for one hour at r.t. Subsequently, lysate was incubated with 30 μM Example 4 (1 μL, of 25× stock in DMSO) for one hour at r.t. Click chemistry, reducing SDS-PAGE and visualization were performed as described above.

In the case of CC1=C[C@@]2(C[C@H](C)[C@H]3CC=C(CO)C(=O)[C@@H]3O2)OC1=O [beshanzuenone C], the IC50 (PTP1B) is given as 59.7 µM.

For C=C1CC2(CC(C)C3CC=C(CO)C(O)C3O2)OC1=O (stereo not shown) [Example 3′], the “preference for SHP2 over PTP1B” value (SHP2) was 10 fold and the IC50 (SHP2) was 3.3 ± 0.1 µM.

For CC1=C[C@@]2(C[C@H](C)[C@H]3CC=C(C)[C@@H](O[C@@H]4O[C@H](CO)[C@@H](O)[C@H](O)[C@H]4O)[C@@H]3O2)OC1=O [Abiespiroside A, abiespiroside A], the “inhibitory activity against the production of nitric oxide” value [1] is given as “potent inhibitory activity”.

With C=C1C[C@@]2(C[C@H](C)[C@H]3CC=C(CO)C(=O)[C@@H]3O2)OC1=O [Example 3, (2R,4S,4aR,8aR)-7-(hydroxymethyl)-4-methyl-4′-methylene-3,3′,4,4a,4′,8a-hexahydro-5′H-spiro[chromene-2,2′-furan]-5′,8(5H)-dione] the “preference for SHP2 over PTP1B” value (SHP2) was 10 fold and the IC50 (SHP2) was 33.3 ± 0.9 µM.

For C=C1C[C@@]2(C[C@H](C)[C@H]3CC=C(C)C(=O)[C@@H]3O2)OC1=O [Example 2, (2R,4S,4aR,8aR)-4,7-dimethyl-4′-methylene-3,3′,4,4a,4′,8a-hexahydro-5′H-spiro[chromene-2,2′-furan]-5′,8(5H)-dione], the kinact (POLE3-GFP) was 0.0045 s⁻¹, the Ki (POLE3-GFP; read-out: POLE3-GFP binding constant Ki) was 56.9 µM and the “γH2AX signal, combination with etoposide versus etoposide only-treated cells” value (HeLa cells; 30 μM etoposide combined with 30 μM Example 2, 6 hours) was “significantly stronger γH2AX signal”. For the same compound, the “γH2AX signal intensity, compound alone” value (HeLa cells; 30 μM, 6 hours) was “did not lead to an increase”, the “functional effect of binding on POLE3 (overlap of protein expression profile with POLE3 KD cells)” value (POLE3; 30 μM, 6 h treatment) was “leads to the loss of function of POLE3” and the “upregulation of POLE” value (POLE3; POLE3 KD and Example 2-treated (30 μM, 6 h)) was “fourfold”. For the same compound, the “preference for SHP2 over PTP1B” value (SHP2) was 10 fold and the IC50 (SHP2) was 44.9 ± 9.6 µM.

In the case of CC1=C[C@@]2(C[C@H](C)[C@H]3CC=C(C)C(=O)[C@@H]3O2)OC1=O [beshanzuenone D], the IC50 (PTP1B) is given as 40.4 µM.

With C=C1C[C@@]2(C[C@H](C)[C@H]3CC=C(CN=[N+]=[N-])C(=O)[C@@H]3O2)OC1=O [Example 4, (2R,4S,4aR,8aR)-7-(azidomethyl)-4-methyl-4′-methylene-3,3′,4,4a,4′,8a-hexahydro-5′H-spiro[chromene-2,2′-furan]-5′,8(5H)-dione] the “binding of the azide probe in lysate” value (MDA-MB-231 lysate) was “binded to cysteines”.
